Results: patent US10221172B2, “Benzothiazole and benzisothiazole-substituted compounds as mGluR4 allosteric potentiators, compositions, and methods of treating neurological dysfunction” (Vanderbilt University, priority 2015, dated 2019)

Target: human mGluR4 (Homo sapiens (Human), UniProt Q14833)
Test: mGluR4 potentiation assay, CHO cells transfected with human mGluR4, Ca2+-sensitive dye, EC20 agonist
Assay type: cell-based
Settings: potentiation of mGluR4
Procedure: The disclosed compounds and compositions can be evaluated for their ability to act as a potentiator of metabotropic glutamate receptor activity, in particular mGluR4 activity, by any suitable known methodology known in the art. For example, Chinese Hamster Ovary (CHO) cells transfected with human mGluR4 or HEK cells co-transfected with rat mGluR4 and the G-protein regulated Inwardly Rectifying Potassium channel (GIRK) were plated in clear bottom assay plates for assay in a Hamamatsu FDSS Fluorometric Plate Reader. The cells were loaded with either a Ca2+-sensitive fluorescent dye or the thallium responsive dye and the plates were washed and placed into a suitable kinetic plate reader. For human mGluR4 assays, a fluorescence baseline was established for 3-5 seconds, the disclosed compounds were then added to the cells, and the response in cells was measured. Approximately two and a half minutes later, a concentration of mGluR4 orthosteric agonist (e.g. glutamate or L-AP4) eliciting approximately 20% (EC20) of the maximal agonist response was added to the cells, and the response was measured. Two minutes later, a concentration of mGluR4 agonist (e.g. glutamate or L-AP4) eliciting 80% (EC80) of the maximal agonist response was added to the cells, and the response was measured. For rat mGluR4/GIRK experiments, a baseline was established for approximately five seconds, disclosed compounds were added, and either an EC20 or EC80 concentration of agonist was added approximately two and one half minutes later. Potentiation of the agonist response of mGluR4 by the disclosed compounds was observed as an increase in response to the EC20 concentration of agonist in the presence of compound compared to the response to agonist in the absence of compound. Similarly, antagonism of the agonist response of mGluR4 by the disclosed compounds was observed as a decrease in response to the EC80 concentration of agonist in the presence of compound compared to the response to agonist in the absence of compound.
The above described assay operated in two modes. In the first mode, a range of concentrations of the disclosed compounds are added to cells, followed by a single fixed concentration of agonist. If the compound acts as a potentiatior, an EC50 value for potentiation and a maximum extent of potentiation by the compound at this concentration of agonist is determined by non-linear curve fitting. If the compound acts as a noncompetitive antagonist, an IC50 value is determined by non-linear curve fitting. In the second mode, several fixed concentrations of the disclosed compounds are added to various wells on a plate, followed by a range in concentrations of agonist for each concentration of disclosed compound. The EC50 values for the agonist at each concentration of compound are determined by non-linear curve fitting. A decrease in the EC50 value of the agonist with increasing concentrations of the sample compound (a leftward shift of the agonist concentration-response curve) is an indication of the degree of mGluR4 potentiation at a given concentration of the sample compound. A decrease in the maximal response of the agonist with increasing concentrations of the sample compounds, with or without a rightward shift in agonist potency, is an indication of the degree of noncompetitive antagonism at mGluR4. The second mode also indicates whether the sample compounds also affect the maximum response to mGluR4 to agonists.

[1] = main compound table, species not given
[2] = summary list repeated at the end of the table, species not stated

human mGluR4, sequence (Q14833 33-912): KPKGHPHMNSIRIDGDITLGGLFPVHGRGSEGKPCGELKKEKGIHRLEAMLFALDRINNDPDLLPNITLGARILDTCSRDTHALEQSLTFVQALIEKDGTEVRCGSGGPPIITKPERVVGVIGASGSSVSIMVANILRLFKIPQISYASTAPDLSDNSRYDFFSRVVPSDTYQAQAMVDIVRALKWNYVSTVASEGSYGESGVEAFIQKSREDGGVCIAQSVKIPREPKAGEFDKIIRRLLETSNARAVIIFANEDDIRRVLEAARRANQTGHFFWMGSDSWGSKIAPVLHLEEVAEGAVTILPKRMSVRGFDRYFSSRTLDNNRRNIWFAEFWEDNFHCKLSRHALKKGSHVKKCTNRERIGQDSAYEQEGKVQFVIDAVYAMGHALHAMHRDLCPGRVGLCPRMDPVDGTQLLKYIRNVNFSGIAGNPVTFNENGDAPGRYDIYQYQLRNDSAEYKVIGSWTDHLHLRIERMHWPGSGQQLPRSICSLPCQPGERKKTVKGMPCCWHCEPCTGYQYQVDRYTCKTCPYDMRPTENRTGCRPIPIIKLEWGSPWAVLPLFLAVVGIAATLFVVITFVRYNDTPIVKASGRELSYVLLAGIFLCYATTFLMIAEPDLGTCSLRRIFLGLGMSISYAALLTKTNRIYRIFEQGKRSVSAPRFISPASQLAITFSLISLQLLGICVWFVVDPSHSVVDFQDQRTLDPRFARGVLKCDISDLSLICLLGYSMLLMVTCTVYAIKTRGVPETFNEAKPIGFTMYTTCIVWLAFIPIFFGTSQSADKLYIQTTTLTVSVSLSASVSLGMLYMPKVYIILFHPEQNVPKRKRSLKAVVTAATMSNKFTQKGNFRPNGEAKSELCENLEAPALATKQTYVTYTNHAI

Compound	EC50 [1] [nM]	EC50 [2] [nM]
c1cnc2c(Nc3ccc4c(-c5ccsc5)nsc4c3)n[nH]c2c1 [Example 45, N-(1H-pyrazolo[4,3-b]pyiridn-3-yl)-3-(thiophen-3-yl)benzo[d] isothiazol-6-amine]	216	216
FC(F)(F)c1nsc2cc(Nc3n[nH]c4ncccc34)ccc12 [Example 29, N-(1H-pyrazolo[3,4-b]pyridin-3-yl)-3-(trifluoromethyl)benzo[d] isothiazol-6-amine]	1240	1240
CC(C)(C)C1CCN(Cc2nsc3cc(Nc4n[nH]c5ncccc45)cnc23)CC1 [Example 57, 3-((4-(tert-butyl)piperidin-1-yl)methyl)-N-(1H-pyrazolo[3,4-b]pyridin-3-yl)isothiazolo[4,5-b] pyridin-6-amine]	4130	4130
O=C(c1nsc2cc(Nc3n[nH]c4cccnc34)ccc12)N1CCC(N2CCOCC2)C1 (centres unmarked) [Example 14, (6-((1H-pyrazolo[4,3-b]pyridin-3-yl)amino)benzo[d]isothiazol-3-yl) (3-morpholinopyrrolidin-1-yl)methanone]	3450	3450

Further compounds by falling EC50 [1], results first:

EC50 [1] [nM]	EC50 [2] [nM]	Compound
1340	1340	O=C(c1nsc2cc(Nc3n[nH]c4cccnc34)ccc12)N1CCCC1 [Example 10, (6-((1H-pyrazolo [4,3-b]pyridin-3-yl)amino)benzo[d]isothiazol-3-yl) (pyrrolidin-1-yl) methanone]
1030	1030	c1cnc2[nH]nc(Nc3cnc4c(CN5CCOCC5)nsc4c3)c2c1 [Example 55, 3-(morpholinomethyl)-N-(1H-pyrazolo[3,4-b]pyridin-3-yl)isothiazolo[4,5-b] pyridin-6-amine]
154	154	CC(=O)N1CCC(c2nsc3cc(Nc4n[nH]c5nccnc45)ccc23)CC1 [Example 63, 1-(4-(6-((1H-pyrazolo [3,4-b]pyrazin-3-yl)amino)benzo[d]isothiazol-3-yl)piperidin-1-yl)ethan-1-one]
